Results: patent publication US12384776B2, “Compounds and uses thereof” (Foghorn Therapeutics Inc., priority 2019, dated 2025)

Key:
[1] = target: Nanoluciferase-BRD9 fusion protein (3×FLAG-NLuc-BRD9) in SYO-1 cells (Homo sapiens (Human), UniProt Q9H8M2); assay: SYO1 BRD9 NanoLuc degradation assay; assay type: cell-based; settings: SYO-1 cells, 6 hours, Table 6A
In short: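 Degradation read as loss of NLuc signal after 6 h compound exposure (1 μM top final, 3-fold steps, 10 points, duplicates) in SYO-1 cells stably carrying 3×FLAG-NLuc-BRD9. Signal normalised between DMSO-treated cells and cells given 1 μM of a known BRD9 degrader.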

BRD9 bromodomain = BRD9 bromodomain (Homo sapiens (Human), UniProt Q9H8M2); assay: BRD9 bromodomain TR-FRET competition binding assay
Protocol: Procedure: His-Flag-BRD9 (P133-K239; Swiss Prot Q9H8M2; SEQ ID NO:1 mgsshhhhhhenlyfq/gdykddddkgslevlfqg/[…] […]) was cloned, expressed, purified, and then treated with TEV protease. Cleaved His tag was removed by purification. The binding of a biotinylated small molecule ligand of BRD9 was assessed via the LANCE® TR-FRET platform (PerkinElmer), and the compounds were assayed for inhibitory activity against this interaction.
Results: A mixture of biotinylated-ligand and SureLight™ Allophycocyanin-Streptavidin (APC-SA, PerkinElmer AD0201) in 50 mM HEPES (pH 7.4), 50 mM NaCl, 1 mM TCEP (pH 7), 0.01% (v/v) Tween-20, 0.01% (w/v) bovine serum albumin was added to a white 384-well PerkinElmer Proxiplate Plus plate. DMSO or 3-fold serially diluted compounds were then added to the Proxiplate followed by addition of Flag-BRD9. After a 10-minute incubation at room temperature, Eu—W1024 anti-FLAG (PerkinElmer, AD0273) was added. The final reaction mixture that contained 3.75 nM biotinylated ligand, 3 nM Flag-BRD9, 7.5 nM SureLight™ Allophycocyanin-Streptavidin, and 0.2 nM Eu—W1024 anti-FLAG was incubated at room temperature for 90 minutes.
The plates were then read on a PerkinElmer Envision plate reader to determine the ratio of emission at 665 nm over 615 nm. […]

Nanoluciferase-BRD9 fusion protein (3×FLAG-NLuc-BRD9) in SYO-1 cells, sequence (Q9H8M2 whole entry, the tested form may be a part): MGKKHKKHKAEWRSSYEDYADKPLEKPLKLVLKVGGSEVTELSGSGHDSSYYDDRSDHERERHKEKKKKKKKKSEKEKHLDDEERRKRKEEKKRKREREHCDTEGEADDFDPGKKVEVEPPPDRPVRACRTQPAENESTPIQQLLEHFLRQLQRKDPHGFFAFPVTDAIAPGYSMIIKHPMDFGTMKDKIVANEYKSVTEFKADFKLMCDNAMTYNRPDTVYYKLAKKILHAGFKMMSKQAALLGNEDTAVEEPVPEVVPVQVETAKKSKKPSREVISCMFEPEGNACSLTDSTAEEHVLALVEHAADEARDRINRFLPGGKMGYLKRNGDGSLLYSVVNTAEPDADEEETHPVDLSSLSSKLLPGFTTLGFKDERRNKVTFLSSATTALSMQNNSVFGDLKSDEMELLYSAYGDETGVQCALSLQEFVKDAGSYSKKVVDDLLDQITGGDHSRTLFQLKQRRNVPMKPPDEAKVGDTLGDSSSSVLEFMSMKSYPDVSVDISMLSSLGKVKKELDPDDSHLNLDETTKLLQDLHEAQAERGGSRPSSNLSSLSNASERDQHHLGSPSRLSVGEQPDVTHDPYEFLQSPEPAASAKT
BRD9 bromodomain, sequence (Q9H8M2 133-239): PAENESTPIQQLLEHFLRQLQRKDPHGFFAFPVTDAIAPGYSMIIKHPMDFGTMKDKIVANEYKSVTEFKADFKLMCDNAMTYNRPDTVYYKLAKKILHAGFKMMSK

Row | SMILES | IC50 [1] | IC50 (BRD9 bromodomain)
1 | COc1cc(-c2cn(C)c(=O)c3c2CCN(C(=O)NCCOCCNc2ccc4c(c2)C(=O)N(C2CCC(=O)NC2=O)C4=O)C3)cc(OC)c1CN(C)C (stereo not drawn) [Compound D21, 5-[4-[(dimethylamino)methyl]-3,5-dimethoxyphenyl]-N-[2-(2-[[2-(2,6-dioxopiperidin-3-yl)-1,3-dioxoisoindol-5-yl]amino]ethoxy)ethyl]-7-methyl-8-oxo-3,4-dihydro-1H-2,7-naphthyridine-2-carboxamide formic acid] | > 10 nM | > 10 nM
2 | COc1cc(-c2cn(C)c(=O)c3c2CN(C(=O)N(C)C)CC3)cc(OC)c1CN(C)CCOCCN1CCN(c2ccc3c(c2)C(=O)N(C2CCC(=O)NC2=O)C3=O)CC1 (stereo not drawn) [Compound D33, 8-(4-(((2-(2-(4-(2-(2,6-dioxopiperidin-3-yl)-1,3-dioxoisoindolin-5-yl)piperazin-1-yl)ethoxy)ethyl)(methyl)amino)methyl)-3,5-dimethoxyphenyl)-N,N,6-trimethyl-5-oxo-3,4,5,6-tetrahydro-2,6-naphthyridine-2 (1H)-carboxamide formic acid] | > 1000 nM | > 10 nM
3 | COc1cc(-c2cn(C)c(=O)c3c2CCN(C(=O)NCCCCCCCCCC(=O)N[C@H](C(=O)N2C[C@H](O)C[C@H]2C(=O)NCc2ccc(-c4scnc4C)cc2)C(C)(C)C)C3)cc(OC)c1CN(C)C [Compound D38, (2S,4R)-1-[(2S)-2-[10-(5-[4-[(dimethylamino)methyl]-3,5-dimethoxyphenyl]-7-methyl-8-oxo-3,4-dihydro-1H-2,7-naphthyridine-2-carbonylamino)decanamido]-3,3-dimethylbutanoyl]-4-hydroxy-N-[[4-(4-methyl-1,3-thiazol-5-yl)phenyl]methyl]pyrrolidine-2-carboxamide] | > 10 nM | < 10 nM
4 | CNC(=O)N1CCc2c(-c3cc(OC)c(CN4CC(NC(=O)CCCCCOc5cccc6c5C(=O)N(C5CCC(=O)NC5=O)C6=O)C4)cc3OC)cn(C)c(=O)c2C1 (stereo not drawn) [Compound D15, 5-(4-[[3-(6-[[2-(2,6-Dioxopiperidin-3-yl)-1,3-dioxoisoindol-4-yl]oxy]hexanamido)azetidin-1-yl]methyl]-2,5-dimethoxyphenyl)-N,7-dimethyl-8-oxo-3,4-dihydro-1H-2,7-naphthyridine-2-carboxamide formic acid] | > 100 nM | > 10 nM
5 | COc1cc(-c2cn(C)c(=O)c3c2CCN(C(=O)NCCOCCNc2ccc4c(c2)C(=O)N(C2CCC(=O)NC2=O)C4=O)C3)c(OC)cc1CN(C)C (stereo not drawn) [Compound D32, 5-[4-[(dimethylamino)methyl]-2,5-dimethoxyphenyl]-N-[2-(2-[[2-(2,6-dioxopiperidin-3-yl)-1,3-dioxoisoindol-5-yl]amino]ethoxy)ethyl]-7-methyl-8-oxo-3,4-dihydro-1H-2,7-naphthyridine-2-carboxamide formic acid] | > 100 nM | > 100 nM
6 | COc1cc(-c2cn(C)c(=O)c3c2CCN(C(=O)CCCCCCCCNc2cccc4c2C(=O)N(C2CCC(=O)NC2=O)C4=O)C3)cc(OC)c1CN(C)C (stereo not drawn) [Compound D19, 4-[[9-(5-[4-[(dimethylamino)methyl]-3,5-dimethoxyphenyl]-7-methyl-8-oxo-1,2,3,4,7,8-hexahydro-2,7-naphthyridin-2-yl)-9-oxononyl]amino]-2-(2,6-dioxopiperidin-3-yl)-2,3-dihydro-1H-isoindole-1,3-dione] | > 1000 nM | > 1000 nM
7 | COc1cc(-c2cn(C)c(=O)c3c2CCN(C(=O)NCCCCCOc2cccc4c2C(=O)N(C2CCC(=O)NC2=O)C4=O)C3)cc(OC)c1CN(C)C (stereo not drawn) [Compound D18, 5-[4-[(dimethylamino)methyl]-3,5-dimethoxyphenyl]-N-(5-[[2-(2,6-dioxopiperidin-3-yl)-1,3-dioxoisoindol-4-yl]oxy]pentyl)-7-methyl-8-oxo-3,4-dihydro-1H-2,7-naphthyridine-2-carboxamide] | > 10 nM | > 10 nM
8 | COc1cc(-c2cn(C)c(=O)c3c2CCN(C(=O)NCCCCCCCCNc2cccc4c2CN(C2CCC(=O)NC2=O)C4=O)C3)cc(OC)c1CN(C)C (stereo not drawn) [Compound D29, 5-(4-((dimethylamino)methyl)-3,5-dimethoxyphenyl)-N-(8-((2-(2,6-dioxopiperidin-3-yl)-1-oxoisoindolin-4-yl)amino)octyl)-7-methyl-8-oxo-3,4,7,8-tetrahydro-2,7-naphthyridine-2 (1H)-carboxamide formic acid] | < 10 nM | < 10 nM
9 | COc1cc(-c2cn(C)c(=O)c3c2CCN(C(=O)NCCCCCCCC(=O)N[C@H](C(=O)N2C[C@H](O)C[C@H]2C(=O)NCc2ccc(-c4scnc4C)cc2)C(C)(C)C)C3)cc(OC)c1CN(C)C [Compound D37, (2S,4R)-1-[(2S)-2-[8-(5-[4-[(dimethylamino)methyl]-3,5-dimethoxyphenyl]-7-methyl-8-oxo-3,4-dihydro-1H-2,7-naphthyridine-2-carbonylamino)octanamido]-3,3-dimethylbutanoyl]-4-hydroxy-N-[[4-(4-methyl-1,3-thiazol-5-yl)phenyl]methyl]pyrrolidine-2-carboxamide formic acid] | > 10 nM | < 10 nM
10 | COc1cc(-c2cn(C)c(=O)c3c2CCN(C(=O)NCCOCCNc2cccc4c2C(=O)N(C2CCC(=O)NC2=O)C4=O)C3)cc(OC)c1CN(C)C (stereo not drawn) [Compound D17, 5-[4-[(dimethylamino)methyl]-3,5-dimethoxyphenyl]-N-[2-(2-[[2-(2,6-dioxopiperidin-3-yl)-1,3-dioxoisoindol-4-yl]amino]ethoxy)ethyl]-7-methyl-8-oxo-3,4-dihydro-1H-2,7-naphthyridine-2-carboxamide formic acid] | > 10 nM | > 10 nM
11 | COc1cc(-c2cn(C)c(=O)c3c2CCN(C(=O)NCCOCCNc2cccc4c2C(=O)N(C2CCC(=O)NC2=O)C4=O)C3)c(OC)cc1CN(C)C (stereo not drawn) [Compound D14, 5-[4-[(dimethylamino)methyl]-2,5-dimethoxyphenyl]-N-[2-(2-[[2-(2,6-dioxopiperidin-3-yl)-1,3-dioxoisoindol-4-yl]amino]ethoxy)ethyl]-7-methyl-8-oxo-3,4-dihydro-1H-2,7-naphthyridine-2-carboxamide formic acid] | > 100 nM | > 10 nM
12 | COc1cc(-c2cn(C)c(=O)c3c2CCNC3)cc(OC)c1CN(C)C [Compound B17, 4-[4-[(dimethylamino)methyl]-3,5-dimethoxyphenyl]-2-methyl-1,2,5,6,7,8-hexahydro-2,7-naphthyridin-1-one] | – | > 1000 nM
13 | CNC(=O)N1CCc2c(-c3cc(OC)c(CN4CCC(CCN5CCN(c6ccc7c(c6)C(=O)N(C6CCC(=O)NC6=O)C7=O)CC5)CC4)c(OC)c3)cn(C)c(=O)c2C1 (stereo not drawn) [Compound D28, 5-(4-[[4-(2-[4-[2-(2,6-dioxopiperidin-3-yl)-1,3-dioxoisoindol-5-yl]piperazin-1-yl]ethyl)piperidin-1-yl]methyl]-3,5-dimethoxyphenyl)-N,7-dimethyl-8-oxo-3,4-dihydro-1H-2,7-naphthyridine-2-carboxamide formic acid] | < 10 nM | < 10 nM
14 | COc1cc(-c2cn(C)c(=O)c3c2CCN(C(=O)NCCN(C)CCOCCOc2cccc4c2C(=O)N(C2CCC(=O)NC2=O)C4=O)C3)cc(OC)c1CN(C)C (stereo not drawn) [Compound D30, 5-[4-[(dimethylamino)methyl]-3,5-dimethoxyphenyl]-N-(2-[[2-(2-[[2-(2,6-dioxopiperidin-3-yl)-1,3-dioxoisoindol-4-yl]oxy]ethoxy)ethyl](methyl)amino]ethyl)-7-methyl-8-oxo-3,4-dihydro-1H-2,7-naphthyridine-2-carboxamide formic acid] | > 1000 nM | > 100 nM
15 | COc1cc(-c2cn(C)c(=O)c3c2CCN(C(=O)CCCCCOc2cccc4c2C(=O)N(C2CCC(=O)NC2=O)C4=O)C3)cc(OC)c1CN(C)C (stereo not drawn) [Compound D20, ([4-[7-(6-[[2-(2,6-dioxopiperidin-3-yl)-1,3-dioxo-2,3-dihydro-1H-isoindol-4-yl]oxy]hexanoyl)-2-methyl-1-oxo-1,2,5,6,7,8-hexahydro-2,7-naphthyridin-4-yl]-2,6-dimethoxyphenyl]methyl)(methyl)aminyl] | > 1000 nM | > 1000 nM
16 | COc1cc(-c2cn(C)c(=O)c3c2CN(C(=O)N(C)C)CC3)cc(OC)c1CN(C)C [Compound B21, 8-[4-[(dimethylamino)methyl]-3,5-dimethoxyphenyl]-N,N,6-trimethyl-5-oxo-3,4-dihydro-1H-2,6-naphthyridine-2-carboxamide] | – | > 100 nM
17 | COc1cc(-c2cn(C)c(=O)c3c2CCN(C(C)=O)C3)cc(OC)c1CN(C)C [Compound B14, 7-acetyl-4-[4-[(dimethylamino)methyl]-3,5-dimethoxyphenyl]-2-methyl-1,2,5,6,7,8-hexahydro-2,7-naphthyridin-1-one] | – | > 1000 nM
18 | CCC(=O)N1CCc2c(-c3cc(OC)c(CN(C)C)c(OC)c3)cn(C)c(=O)c2C1 [Compound B12] | – | > 1000 nM
19 | CNC(=O)N1CCc2c(-c3cc(OC)c(CN(C)C)c(OC)c3)cn(C)c(=O)c2C1 [Compound B9, 5-(4-((dimethylamino)methyl)-3,5-dimethoxyphenyl)-N,7-dimethyl-8-oxo-3,4,7,8-tetrahydro-2,7-naphthyridine-2 (1H)-carboxamide] | – | < 10 nM
